Measurements from patent US7754868B2, “Nucleic acid encoding two-component sensing and regulatory proteins, antimicrobial proteins and uses therefor” (North Carolina State University, priority 2004, dated 2010).
“Also recorded” adds a separate entry of the source.

What was measured:
[1] = test system: L. acidophilus NCFM LBA1430 HPK mutant; assay: Growth curves with 0.3% of individual bile salts; format: cell-based, Lactobacillus acidophilus; settings: 0.3% bile salt
Experimental: Growth curve experiments were also performed using 0.3% of individual bile salts: taurocholic acid, taurodeoxycholic acid, taurochenodeoxycholic acid, glycocholic acid, glycodeoxycholic acid.

[2] = test system: L. acidophilus control NCK1398 (NCFM::lacL); settings: 20% ethanol, after 90 min, log-phase cells
Experimental: (§1) Log phase cells at an A600 of 0.25-0.3 (pH>5.8) from a 2% inoculum in MRS broth were centrifuged and resuspended in the same volume of NMS, or MRS containing 15 or 20% (v/v) ethanol. CFU/ml were determined at 30 minutes intervals by serial dilutions in 10% MRS and enumeration on MRS agar as described above.

[3] = test system: L. acidophilus HPK mutant (NCK1686); settings: log-phase cells
Experimental: as §1

Compound	effect on growth of the HPK mutant compared to wild type [1]	reduction in survival [2] [log]	survival, HPK mutant versus control ([3]; 15% (v/v) ethanol)	reduction in survival ([3]; 20% ethanol, after 90 min) [log]
C[C@H](CCC(=O)NCCS(=O)(=O)O)[C@H]1CC[C@H]2[C@@H]3CC[C@@H]4C[C@H](O)CC[C@]4(C)[C@H]3C[C@H](O)[C@]12C [Sodium taurodeoxycholate]	the only salt that affected the growth of the HPK mutant; also recorded: more inhibitory effect on the growth of the HPK mutant than other salts tested			
CCO [ethanol]		1	No differences were observed	4
